{"source": "paper PMC11790914", "about": "“Chemogenomics for steroid hormone receptors (NR3)” (Communications Chemistry, 2025)", "key": {"[1]": {"system": "NR3C4 (AR)", "conditions": "cited from earlier work"}, "[2]": {"conditions": "cited from earlier work; for NR off-target at recom. conc.: known NR off-target at the recommended concentration; for NR off-target at recom. conc. / Other off-target at recom. conc.: ref Supplementary Table 1 (superscript references); for Reason for exclusion: number of annotated off-targets: other targets with annotated bioactivities at ≤10 µM in previously published dataset; for Other off-target at recom. conc.: known off-target outside the NR family at the recommended concentration"}, "[3]": {"system": "NR3C3 (PR)", "conditions": "cited from earlier work; for IC50: (lit.), ref Supplementary Table 1, read-out: Potency [nM] IC50, NR3C3 (PR)"}, "[4]": {"biological_target": "T1, NR1H3 (LXRα) (Homo sapiens, UniProt Q13133)", "T1 construct": "expressed in transfected cells; host or cells: HEK293T", "T1 sequence (Q13133 209-447 limits assumed)": "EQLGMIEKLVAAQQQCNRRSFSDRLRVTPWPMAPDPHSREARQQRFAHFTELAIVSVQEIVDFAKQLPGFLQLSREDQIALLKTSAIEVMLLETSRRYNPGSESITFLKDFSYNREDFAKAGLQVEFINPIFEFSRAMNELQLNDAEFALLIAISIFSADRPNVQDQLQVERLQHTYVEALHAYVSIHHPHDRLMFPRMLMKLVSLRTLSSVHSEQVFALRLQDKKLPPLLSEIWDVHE", "assay": "Gal4 hybrid reporter gene assay LXRα", "format": "cell-based", "conditions": "n=3", "procedure": "(§1) Reference ligands are listed in the methods section.\n(§2) HEK293T cells (ATCC, Manassas, Virgina, USA; #CRL-3216) were cultured to a maximal confluence of 70–80% in DMEM, high glucose, supplemented with 10% FCS, sodium pyruvate (1 mM), penicillin (100 U/mL), and streptomycin (100 μg/mL) at 37 °C and 5% CO2 (v/v), and seeded in clear 96-well plates (4 × 10^4 cells per well). After 20–24 h, medium was changed to Opti-MEM without supplements and the cells were transiently transfected using Lipofectamine™ LTX/Plus™ Reagents (Invitrogen, Carlsbad, California, USA; #15338100) according to the manufacturer’s protocol with pFR-Luc (reporter gene; Stratagene, Agilent Technologies, Santa Clara, California, USA; #219050), pRL-SV40 (control gene for normalization of transfection efficiency and cell growth; Promega, Fitchburg, Wisconsin, USA; #E2231) and one pFA-CMV-hNR-LBD clone coding for the hinge region and ligand binding domain (LBD) of the human NR of interest. Five hours after transfection, the cells were incubated with the NR3 CG compound candidates at the recommended concentrations by changing the medium to Opti-MEM supplemented with penicillin (100 µ/mL) and streptomycin (100 µg/mL) additionally containing 0.1% DMSO and the respective test compound or 0.1% DMSO alone as untreated control. Firefly (reporter) and renilla (control) luminescence were measured after 14–16 h incubation using the Dual-Glo® Luciferase Assay System (Promega, Fitchburg, Wisconsin, USA; #E2980) according to manufacturer’s protocol on a Tecan Spark® 10M multimode microplate reader (Tecan Group AG, Männedorf, Switzerland). To obtain relative light units (RLU) firefly luminescence was divided by renilla luminescence and multiplied by 1000. Fold activation was obtained by dividing the mean RLU of a test sample by the mean RLU of the DMSO (0.1%) control. Experiments were performed in singlets in at least three biologically independent repeats. […]"}, "[5]": {"system": "NR3B2 (ERRβ)", "conditions": "ref Supplementary Table 1, cited from earlier work"}, "[6]": {"biological_target": "T2, NR2A2 (HNF4α) (Homo sapiens, UniProt P41235)", "T2 construct": "expressed in transfected cells; host or cells: HEK293T", "T2 sequence (P41235 147-377 limits assumed)": "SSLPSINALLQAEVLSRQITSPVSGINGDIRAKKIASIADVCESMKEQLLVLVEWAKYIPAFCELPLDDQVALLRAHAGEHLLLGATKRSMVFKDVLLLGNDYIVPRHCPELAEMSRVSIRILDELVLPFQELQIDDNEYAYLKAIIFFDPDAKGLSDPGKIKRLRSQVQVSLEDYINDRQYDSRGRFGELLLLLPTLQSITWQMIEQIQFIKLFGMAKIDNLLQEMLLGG", "assay": "Gal4 hybrid reporter gene assay HNF4α", "format": "cell-based", "conditions": "n=3", "procedure": "as §1\nas §2, with “Five hours after transfection, the cells were incubated with the NR3 CG compound candidates at the recommended concentrations by changing the medium to Opti-MEM supplemented with penicillin (100 µ/mL) and streptomycin (100 µg/mL) additionally containing 0.1% DMSO and the respective test compound or 0.1% DMSO alone as untreated control.” left out, “1000.” for “1000. Fold activation was obtained by dividing the mean RLU of a test sample by the mean RLU of the DMSO (0.1%) control. Experiments were performed in singlets in at least three biologically independent repeats.”"}, "[7]": {"biological_target": "T3, NR2B1 (RXRα) (Homo sapiens, UniProt P19793)", "T3 construct": "expressed in transfected cells; host or cells: HEK293T", "T3 sequence (P19793 227-458 limits assumed)": "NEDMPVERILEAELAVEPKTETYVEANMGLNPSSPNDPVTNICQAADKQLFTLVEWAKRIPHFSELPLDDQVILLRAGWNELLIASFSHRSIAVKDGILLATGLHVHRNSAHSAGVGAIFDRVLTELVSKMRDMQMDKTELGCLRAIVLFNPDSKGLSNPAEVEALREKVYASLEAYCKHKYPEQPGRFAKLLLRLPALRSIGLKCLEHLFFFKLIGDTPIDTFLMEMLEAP", "assay": "Gal4 hybrid reporter gene assay RXRα", "format": "cell-based", "conditions": "n=3", "procedure": "as §1\nFive hours after transfection, the cells were incubated with the NR3 CG compound candidates at the recommended concentrations by changing the medium to Opti-MEM supplemented with penicillin (100 µ/mL) and streptomycin (100 µg/mL) additionally containing 0.1% DMSO and the respective test compound or 0.1% DMSO alone as untreated control. Firefly (reporter) and renilla (control) luminescence were measured after 14–16 h incubation using the Dual-Glo® Luciferase Assay System (Promega, Fitchburg, Wisconsin, USA; #E2980) according to manufacturer’s protocol on a Tecan Spark® 10M multimode microplate reader (Tecan Group AG, Männedorf, Switzerland). To obtain relative light units (RLU) firefly luminescence was divided by renilla luminescence and multiplied by 1000. Fold activation was obtained by dividing the mean RLU of a test sample by the mean RLU of the DMSO (0.1%) control. Experiments were performed in singlets in at least three biologically independent repeats.\nSupplementary Figure 1. […] Compounds are labeled according\nSupplementary Figure 2. […] Compounds are\nrepresenting the NR1, NR2, NR4 and NR5 families.\nscanning fluorimetry (DSF).\na concentration of 20 µM."}, "[8]": {"system": "NR3C1 (GR)", "conditions": "cited from earlier work"}, "[9]": {"system": "NR3A2 (ERβ)", "conditions": "(lit.); ref Supplementary Table 1; read-out: Potency [nM] IC50, NR3A2 (ERβ); cited from earlier work"}}, "note": "“Also recorded” adds a separate entry of the source."}
{"smiles": "C/C=C1\\C(=O)C[C@H]2[C@@H]3CCC4=CC(=O)CC[C@]4(C)[C@H]3CC[C@]12C", "note": "[Z-Guggulsterone]", "values": [{"measurement": "EC50", "setting": "[1]; read-out: Potency [nM] EC50, NR3C4 (AR), (lit.), ref Supplementary Table 1", "value": "660 ± 240", "unit": "nM"}, {"measurement": "NR off-target at recom. conc.", "setting": "[2]", "value": "NR1H4; also recorded: NR1I2; also recorded: NR3A1; also recorded: NR3C1; also recorded: NR3C2"}, {"measurement": "Reason for exclusion: number of annotated off-targets", "setting": "[2]", "value": "> 5", "unit": "off-targets"}, {"measurement": "IC50", "setting": "[3]", "value": "740 ± 220", "unit": "nM"}, {"measurement": "Activity on NR1H3 (LXRα)", "setting": "[4]; 3 µM", "value": "-0.71 mean log10(fold reporter gene activity)"}]}
{"smiles": "CCN(CC)c1ccc(/C=N/NC(=O)c2ccc(O)cc2)cc1", "note": "[DY131]", "values": [{"measurement": "rel. activity from literature, NR3B2 (ERRβ): fold activation", "setting": "[5]", "value": 2, "unit": "fold"}, {"measurement": "Activity on NR targets outside NR3 family [mean log10(fold reporter gene activity)] NR2A2 (HNF4α)", "setting": "[6]; 3 µM, vs. DMSO ctrl", "value": "0.29 log10(fold reporter gene activity)"}]}
{"smiles": "COc1ccc(-c2coc3cc(O)cc(O)c3c2=O)cc1", "note": "[Biochanin A]", "values": [{"measurement": "Reason for exclusion: number of annotated off-targets", "setting": "[2]", "value": "> 5", "unit": "off-targets"}, {"measurement": "Activity on NR2B1 (RXRα)", "setting": "[7]; 10 µM", "value": "-0.68 mean log10(fold reporter gene activity)"}, {"measurement": "Activity on NR1H3 (LXRα)", "setting": "[4]; 10 µM", "value": "-0.46 mean log10(fold reporter gene activity)"}, {"measurement": "Activity on NR2A2 (HNF4α)", "setting": "[6]; 10 µM", "value": "0.38 mean log10(fold reporter gene activity)"}]}
{"smiles": "CC#C[C@]1(O)CC[C@H]2[C@@H]3CCC4=CC(=O)CCC4=C3[C@@H](c3ccc(N(C)C)cc3)C[C@@]21C", "note": "[Mifepristone]", "values": [{"measurement": "rel. activity from literature, NR3C4 (AR): % rem. act. of DHT", "setting": "[1]", "value": "25 ± 2", "unit": "%"}, {"measurement": "IC50", "setting": "[1]; read-out: Potency [nM] IC50, NR3C4 (AR), (lit.), ref Supplementary Table 1", "value": "5 ± 2", "unit": "nM"}, {"measurement": "IC50", "setting": "[3]", "value": "[…]"}, {"measurement": "rel. activity from literature, NR3C3 (PR): % rem. act. of PGN", "setting": "[3]; rem. act. of PGN (progesterone)", "value": "[…]"}, {"measurement": "IC50", "setting": "[8]; (lit.), ref Supplementary Table 1, read-out: Potency [nM] IC50, NR3C1 (GR)", "value": "0.8 ± 0.1", "unit": "nM"}, {"measurement": "rel. activity from literature, NR3C1 (GR): % rem. act. of DXM", "setting": "[8]; rem. act. of DXM (dexamethasone)", "value": "5 ± 1", "unit": "%"}]}
{"smiles": "CC/C(=C(\\c1ccc(O)cc1)c1ccc(OCCN(C)C)cc1)c1ccccc1", "note": "[(Z)-4-Hydroxytamoxifen]", "values": [{"measurement": "Other off-target at recom. conc.", "setting": "[2]", "value": "PLD1 and PLD2"}, {"measurement": "IC50", "setting": "[5]; (lit.), read-out: Potency [nM] IC50, NR3B2 (ERRβ)", "value": 650, "unit": "nM"}, {"measurement": "IC50", "setting": "[9]", "value": "1 ± 1", "unit": "nM"}]}
{"smiles": "Cc1ccc2c(NC[C@](O)(CC(C)(C)c3cc(F)cc4c3OCC4)C(F)(F)F)cccc2n1", "note": "[Mapracorat]", "values": [{"measurement": "EC50", "setting": "[8]; (lit.), ref Supplementary Table 1, read-out: Potency [nM] EC50, NR3C1 (GR)", "value": "1.6 ± 0.3", "unit": "nM"}, {"measurement": "rel. activity from literature, NR3C1 (GR): % transrepression", "setting": "[8]; transrepression", "value": "89 ± 4", "unit": "%"}, {"measurement": "Activity on NR targets outside NR3 family [mean log10(fold reporter gene activity)] NR1H3 (LXRα)", "setting": "[4]; 1 µM, vs. DMSO ctrl", "value": "-0.38 log10(fold reporter gene activity)"}]}
{"smiles": "CC/C(=C(/c1ccc(/C=C/C(=O)O)cc1)c1ccc2[nH]ncc2c1)c1ccc(F)cc1Cl", "note": "[ARN810]", "values": [{"measurement": "NR off-target at recom. conc.", "setting": "[2]", "value": "NR3C1; also recorded: NR3C2; also recorded: NR3C3; also recorded: NR3C4"}, {"measurement": "Other off-target at recom. conc.", "setting": "[2]", "value": "GABAA and DAT"}, {"measurement": "Reason for exclusion: number of annotated off-targets", "setting": "[2]", "value": "> 5", "unit": "off-targets"}, {"measurement": "IC50", "setting": "[9]", "value": 9, "unit": "nM"}, {"measurement": "Activity on NR2B1 (RXRα)", "setting": "[7]; 1 µM", "value": "-0.29 mean log10(fold reporter gene activity)"}]}
{"smiles": "CCCC1O[C@@H]2C[C@H]3[C@@H]4CCC5=CC(=O)C=C[C@]5(C)[C@H]4[C@@H](O)C[C@]3(C)[C@]2(C(=O)CO)O1", "note": "(some centres unmarked) [Budesonide]", "values": [{"measurement": "Reason for exclusion: number of annotated off-targets", "setting": "[2]", "value": "> 5", "unit": "off-targets"}]}
